Legend:
aldose reductase = details: previously reported; cited from earlier work
plasma insulin [1] = assay: Acute administration without glucose bolus in fasted rats: plasma insulin; type: in vivo, rat (male Sprague Dawley); details: acute i.v. administration
Protocol: (§1) Male Sprague Dawley rats (200-250 g, Canadian Breeding Laboratories, St. Constant, Quebec, Canada) were used in the experiment. There were 11 animals in the group. The animals were kept in a room with constant light-dark cycle and temperature. They were allowed food (Purina Lab Chow™) and water ad libitum for at least three days before being utilized. The animals were then fasted for 24 hours and anaesthetized with nembutal (50 mg/kg, intraperitoneally; Abbott Laboratories, Montreal, Quebec, Canada.) The jugular veins were exposed and a fasting blood sample was drawn by the transmusculature puncture method, Y. Kato, J. Dupre and J. C. Beck, Endocrinology, 93, 135 (1973), employing a sodium heparin (The Upjohn Company, Don Mills, Ontario, Canada) washed syringe. […]
(§2) Plasma insulin was measured by radioimmunoassay using a charcoal separation method, V. Herbert et al, J. Clin. Endocrinol., 25, 1375 (1965). […] Plasma glucose was measured by a glucose oxidase method employing a Beckman Glucose Analyser, see Beckman Company Manual, Palo Alto, Calif., U.S.A.
(§3) The results, noted below, are expressed as mean± S.E.M. The statistical significance of changes in the concentration of plasma glucose (mg/100 ml) and insulin (μU/ml), in response to alrestatin or the vehicle, from basal fasting values was determined on the differences between group means by the Student's […]. […]

plasma glucose [2] = assay: Acute administration without glucose bolus in fasted rats: plasma glucose; type: in vivo, rat (male Sprague Dawley); details: acute i.v. administration
Protocol: as §1, §2, §3

LD50 in rats = details: rat, in vivo
Text: Therefore, a good therapeutic index of safety is present.

plasma glucagon = assay: Arginine-induced glucagon release in intact rats; type: in vivo, rat (male Sprague-Dawley)
Protocol: (§4) After light deithyl ether anaesthetization, the animals were injected with a bolus of saline or alrestatin (sodium salt form in 0.3 ml saline/100 g of body weight) in the external jugular vein followed immediately with a bolus of arginine-HCl (British Drug House ) at a dose of 100 mg/100 g of body weight, cf. […] Vehicle control animals received a second injection of saline. Five minutes later trunk blood was collected by decapitation into chilled tubes containing sodium heparin (Upjohn) and aprotinin(Trasylol™, Boehringer-Ingelheim Dorval, Quebec, Canada) (20 U and 1000 KIU per ml whole blood, respectively). Plasma was collected after centrifugation, stored at -20° C. and assayed for immunoreactive glucagon and insulin levels within 2 weeks.
(§5) Rat insulin purchased from Novo A/S, Copenhagen, Denmark, was used as unlabelled standard. […] Glucagon antiserum (Antiserum 30K, purchased from Dr. R. H. Unger, Houston, Tex., U.S.A.) was employed in the assay. […] Metab. […] Metab. […] Antibody bound hormone was separated from free hormone by conventional charcoal-dextran methods.

plasma insulin [3] = assay: Arginine-induced insulin release in intact rats; type: in vivo, rat (male Sprague-Dawley)
Protocol: as §4, §5

plasma insulin [4] = assay: Intravenous glucose tolerance test in anaesthetized fasted non-diabetic male intact rats: plasma insulin; type: in vivo, rat (male Sprague Dawley); details: 0.75 mmol/kg i.v.
Protocol: (§6) A description of this experiment is as follows.
as §1, with “syringe. Alrestatin sodium at a dose of 0.75 mmol/kg was administered as a bolus in the jugular vein followed immediately by a bolus of D-glucose (300 mg/kg; British Drug House, Montreal, Quebec, Canada). Control animals received an injection of sodium chloride (0.75 mmol/kg) instead of the alrestatin sodium. Blood samples were drawn at 5, 10 and 15 minutes after injection of the glucose. The wounds then were closed with autoclips (Clay Adams Co., Parsippany, N. J., U.S.A.) and the animals were allowed food and water for another three day period before the experiment was repeated, i.e., on day 4.” for “syringe.”
as §2, §3

blood glucose = assay: Clinical tests in diabetic patients: blood glucose levels; type: in vivo, human (diabetic patients)
Text: All patients were on a controlled diet. Patient A also was receiving the oral antidiabetic agent, glyburide (Daonil™) and patient C also was receiving the diuretic chlorthalidone (Hygroton™).

plasma glucose [5] = assay: Intravenous glucose tolerance test in anaesthetized fasted non-diabetic male intact rats: plasma glucose; type: in vivo, rat (male Sprague Dawley); details: 0.75 mmol/kg i.v., mean±S.E.M.
Protocol: as §6
as §1, with “syringe. Alrestatin sodium at a dose of 0.75 mmol/kg was administered as a bolus in the jugular vein followed immediately by a bolus of D-glucose (300 mg/kg; British Drug House, Montreal, Quebec, Canada). Control animals received an injection of sodium chloride (0.75 mmol/kg) instead of the alrestatin sodium. Blood samples were drawn at 5, 10 and 15 minutes after injection of the glucose. The wounds then were closed with autoclips (Clay Adams Co., Parsippany, N. J., U.S.A.) and the animals were allowed food and water for another three day period before the experiment was repeated, i.e., on day 4.” for “syringe.”
as §2, §3

[6] = 200 mg/kg i.v. immediately before arginine 100 mg/100 g
[7] = 35-200 mg/kg i.v. immediately before arginine 100 mg/100 g
[8] = arginine 100 mg/100 g i.v., 5 min

O=C(O)CN1C(=O)c2cccc3cccc(c23)C1=O [alrestatin, 1,3-dioxo-1H-benz[de]isoquinoline-2(3H)-acetic acid]
inhibition of the enzyme aldose reductase (aldose reductase): inhibitor of the enzyme aldose reductase | change in basal fasting plasma insulin levels vs vehicle (plasma insulin [1]): did not significantly alter | change in plasma glucose levels vs vehicle (plasma glucose [2]): did not significantly alter | LD50 (LD50 in rats; iv, intravenously): 1220 ± 45 mg/kg | LD50 (LD50 in rats; po, perorally): > 2500 mg/kg

O=C(O)CN1C(=O)c2cccc3cccc(c23)C1=O [alrestatin sodium]
effect on arginine-stimulated glucagon increase (plasma glucagon; [6]): completely prevented the increase caused by arginine | effect on arginine-stimulated glucagon concentrations (plasma glucagon; [7]): decreased the glucagon concentrations | increase of arginine-induced insulin release (plasma insulin [3]; [6]): about 2.5 fold | effect on arginine-induced insulin release (plasma insulin [3]; [7]): increased the insulin release observed with arginine | mean incremental change of plasma insulin (plasma insulin [4]; 5 min after i.v. glucose (300 mg/kg), mean±S.E.M., vehicle 32.9±5.2, p<0.02): 76.9±16.7 μU/ml | plasma insulin levels vs vehicle (plasma insulin [4]; 10 min after i.v. glucose (300 mg/kg)): significantly greater | plasma insulin levels vs vehicle (plasma insulin [4]; 15 min after i.v. glucose (300 mg/kg)): greater at 15 minutes in the alrestatin treated group although the difference was not significant | lowering of blood sugar levels (blood glucose; 50 mg/kg/day i.v. for five days, diabetic patients): effective in lowering blood sugar levels | blood glucose, fasting (blood glucose; Patient A (also on glyburide), day 1, 50 mg/kg/day i.v., pretreatment 162): 132 mg % | blood glucose, 2hr postprandial (blood glucose; Patient A (also on glyburide), day 1, 50 mg/kg/day i.v., pretreatment 276): 185 mg % | blood glucose, fasting (blood glucose; Patient A (also on glyburide), day 2, 50 mg/kg/day i.v., pretreatment 162): 130 mg % | blood glucose, 2hr postprandial (blood glucose; Patient A (also on glyburide), day 2, 50 mg/kg/day i.v., pretreatment 276): 215 mg % | blood glucose, fasting (blood glucose; Patient A (also on glyburide), day 3, 50 mg/kg/day i.v., pretreatment 162): 97 mg % | blood glucose, 2hr postprandial (blood glucose; Patient A (also on glyburide), day 3, 50 mg/kg/day i.v., pretreatment 276): 155 mg % | blood glucose, fasting (blood glucose; Patient A (also on glyburide), day 4, 50 mg/kg/day i.v., pretreatment 162): 90 mg % | blood glucose, 2hr postprandial (blood glucose; Patient A (also on glyburide), day 4, 50 mg/kg/day i.v., pretreatment 276): 117 mg % | blood glucose, fasting (blood glucose; Patient A (also on glyburide), day 5, 50 mg/kg/day i.v., pretreatment 162): 132 mg % | blood glucose, 2hr postprandial (blood glucose; Patient A (also on glyburide), day 5, 50 mg/kg/day i.v., pretreatment 276): 230 mg % | blood glucose, fasting (blood glucose; Patient A (also on glyburide), follow-up after 5 days i.v. treatment, pretreatment 162): 111 mg % | blood glucose, 2hr postprandial (blood glucose; Patient A (also on glyburide), follow-up after 5 days i.v. treatment, pretreatment 276): 207 mg % | blood glucose, fasting (blood glucose; Patient B, day 1, 50 mg/kg/day i.v., pretreatment 90): 92 mg % | blood glucose, 2hr postprandial (blood glucose; Patient B, day 1, 50 mg/kg/day i.v., pretreatment 119): 72 mg % | blood glucose, fasting (blood glucose; Patient B, day 2, 50 mg/kg/day i.v., pretreatment 90): 89 mg % | blood glucose, 2hr postprandial (blood glucose; Patient B, day 2, 50 mg/kg/day i.v., pretreatment 119): 86 mg % | blood glucose, fasting (blood glucose; Patient B, day 3, 50 mg/kg/day i.v., pretreatment 90): 86 mg % | blood glucose, 2hr postprandial (blood glucose; Patient B, day 3, 50 mg/kg/day i.v., pretreatment 119): 94 mg % | blood glucose, fasting (blood glucose; Patient B, day 4, 50 mg/kg/day i.v., pretreatment 90): 50 mg % | blood glucose, 2hr postprandial (blood glucose; Patient B, day 4, 50 mg/kg/day i.v., pretreatment 119): 60 mg % | blood glucose, fasting (blood glucose; Patient B, day 5, 50 mg/kg/day i.v., pretreatment 90): 50 mg % | blood glucose, 2hr postprandial (blood glucose; Patient B, day 5, 50 mg/kg/day i.v., pretreatment 119): 43 mg % | blood glucose, fasting (blood glucose; Patient B, follow-up after 5 days i.v. treatment, pretreatment 90): 81 mg % | blood glucose, 2hr postprandial (blood glucose; Patient B, follow-up after 5 days i.v. treatment, pretreatment 119): 87 mg % | blood glucose, fasting (blood glucose; Patient C (also on chlorthalidone), day 1, 50 mg/kg/day i.v., pretreatment 95): 133 mg % | blood glucose, 2hr postprandial (blood glucose; Patient C (also on chlorthalidone), day 1, 50 mg/kg/day i.v., pretreatment 190): 128 mg % | blood glucose, fasting (blood glucose; Patient C (also on chlorthalidone), day 2, 50 mg/kg/day i.v., pretreatment 95): 111 mg % | blood glucose, 2hr postprandial (blood glucose; Patient C (also on chlorthalidone), day 2, 50 mg/kg/day i.v., pretreatment 190): 145 mg % | blood glucose, fasting (blood glucose; Patient C (also on chlorthalidone), day 3, 50 mg/kg/day i.v., pretreatment 95): 104 mg % | blood glucose, 2hr postprandial (blood glucose; Patient C (also on chlorthalidone), day 3, 50 mg/kg/day i.v., pretreatment 190): 141 mg % | blood glucose, fasting (blood glucose; Patient C (also on chlorthalidone), day 4, 50 mg/kg/day i.v., pretreatment 95): 50 mg % | blood glucose, 2hr postprandial (blood glucose; Patient C (also on chlorthalidone), day 4, 50 mg/kg/day i.v., pretreatment 190): 90 mg % | blood glucose, fasting (blood glucose; Patient C (also on chlorthalidone), day 5, 50 mg/kg/day i.v., pretreatment 95): 77 mg % | blood glucose, 2hr postprandial (blood glucose; Patient C (also on chlorthalidone), day 5, 50 mg/kg/day i.v., pretreatment 190): 106 mg % | blood glucose, fasting (blood glucose; Patient C (also on chlorthalidone), follow-up after 5 days i.v. treatment, pretreatment 95): 119 mg % | blood glucose, 2hr postprandial (blood glucose; Patient C (also on chlorthalidone), follow-up after 5 days i.v. treatment, pretreatment 190): 149 mg % | mean incremental change of plasma glucose (plasma glucose [5]; 5 min after i.v. glucose (300 mg/kg), vehicle 96±4.7, NS): 83.3±5.4 mg % | mean incremental change of plasma glucose (plasma glucose [5]; 10 min after i.v. glucose (300 mg/kg), vehicle 82.8±7.5, p<0.05): 58.8±8.5 mg % | mean incremental change of plasma glucose (plasma glucose [5]; 15 min after i.v. glucose (300 mg/kg), vehicle 78.4±10.7, p<0.05): 45.4±9.6 mg %

N=C(N)NCCC[C@H](N)C(=O)O [arginine, reference compound]
stimulated glucagon release, mean above plasma hormone concentration in vehicle treated animals (plasma glucagon; [8]): about 100 pg/ml | plasma glucagon concentration (plasma glucagon; arginine 100 mg/100 g i.v., 5 min, vehicles 180.6±5.8 pg/ml): 284.8 ± 13.7 pg/mL | increase of plasma insulin concentration (plasma insulin [3]; [8]): about 100 μU/ml

Reference: patent US4405625A, “Method of treating hyperglycemia with 1,3-dioxo-1H-benz[de]isoquinoline-2(3H)-acetic acid” (Ayerst, McKenna and Harrison Limited, priority 1979, dated 1983)
